This data set deals with melanin-forming cells (B16F10 cell line). The data set is described as follows: Cytotoxicity test (MTT assay). Conditions: B16F10, 1 uM to 200 uM, 72 hours, serum-free medium. The format is cell-based, mouse. The method, then: After melanin-forming cells (B16F10 cell line) dispensed in 48-well culture plates were incubated in a 37° C. incubator for 24 hours, the medium for each plate was removed and replaced with serum-free medium, and then the cells were treated with the peptide of the present invention at different concentrations (1, 10, 50, 100, 150, 200 uM). After the cells were incubated for 72 hours, the MTT reagent was added, followed by reaction for 4 hours. Then, the generated formazan was dissolved in DMSO, and the absorbance was measured at 560 nm.
(Tetrazolium assays rely on reduction of a dye to a coloured formazan, in cell work by metabolically active cells.)

The values below come from patent US10080775B2, “Peptide having skin whitening activity, and use thereof” (CAREGEN CO., LTD., priority 2017, dated 2018).

Peptide text beside a SMILES is read from it.

Consider `CCCC(CCC)C(=O)N[C@H](C(=O)N[C@@H](Cc1c[nH]c2ccccc12)C(=O)N[C@@H](CO)C(=O)N[C@@H](CC(C)C)C(=O)N[C@@H](CC(=O)O)C(=O)N[C@H](C(=O)N[C@@H](CCC(N)=O)C(=O)N[C@@H](Cc1ccc(O)cc1)C(=O)NCC(=O)NCC(=O)N[C@@H](CCCNC(=N)N)C(=O)NCC(=O)N[C@@H](CC(=O)O)C(=O)O)[C@@H](C)O)[C@@H](C)CC` [Valprooyl-Ile-Trp-Ser-Leu-Asp-Thr-Gln-Tyr-Gly-Gly-Arg-Gly-Asp-COOH] (HELM PEPTIDE1{[CCCC(CCC)C(=O)[*:2]].I.W.S.L.D.T.Q.Y.G.G.R.G.D}$$$$V2.0), for which the “cytotoxicity on melanocytes (MTT assay)” value is listed as “no cytotoxicity was observed”.
